Laboratory results from patent publication US20070249844A1, “Pyrazole derivatives and process for the production thereof” (Ihara Chemical Industry Co., Ltd., priority 2002, published 2007).

SMILES | melting point [°C]
CC(C)n1nc(C(F)(F)F)c(CS(=O)(=O)C2=NOC(C)(C)C2)c1OCC(F)(F)F | 109 to 110
Cn1nc(C(F)(F)F)c(CS(=O)(=O)C2=NOCC2)c1OC(F)F | 115 to 117
CCC1(C)CC(S(=O)(=O)Cc2c(C(F)(F)F)nn(C)c2OC(F)F)=NO1 (stereo not drawn) | 77 to 78
CC1(C)CC(S(=O)(=O)Cc2c(C(F)(F)F)nn(C(C)(C)C)c2OCC(F)(F)F)=NO1 | 91 to 92
CCn1nc(C(F)(F)F)c(CS(=O)(=O)C2=NOC(C)(C)C2)c1OC(F)F | 98 to 100
Cn1nc(C(F)(F)F)c(CSC2=NOC(C)(C)C2)c1OC(F)F | 39 to 40
CCn1nc(C(F)(F)F)c(C)c1O | 150 to 152
Cn1nc(C(F)(F)F)c(CS(=O)(=O)C2=NOC(C)(C3CC3)C2)c1OC(F)F (stereo not drawn) | 96 to 98
Cn1nc(C(F)(F)F)c(CS(=O)(=O)C2=NOC3CCCCC23)c1OC(F)F (stereo not drawn) | 97 to 98
Cn1nc(C(F)(F)F)c(CS(=O)(=O)C2=NOC(C)(C)C2)c1OCC(F)(F)F | 93 to 95
CC1CC(S(=O)(=O)Cc2c(C(F)(F)F)nn(C)c2OC(F)F)=NO1 (stereo not drawn) | 106 to 107
CCCn1nc(C(F)(F)F)c(C)c1O | 133 to 134
CCCn1nc(C(F)(F)F)c(CS(=O)(=O)C2=NOC(C)(C)C2)c1OCC(F)(F)F | 49 to 51
CC(C)n1nc(C(F)(F)F)c(CS(=O)(=O)C2=NOC(C)(C)C2)c1OCC(F)F | 88 to 89
Cn1nc(C(F)(F)F)c(CS(=O)(=O)C2=NOC(C)(C)C2)c1OCC(F)F | 89 to 91
CCn1nc(C(F)(F)F)c(CS(=O)(=O)C2=NOC(C)(C)C2)c1OCC(F)(F)F | 84 to 86
Br.CCn1nc(C(F)(F)F)c(CSC(=N)N)c1OC(F)F | 139 to 141
CC(C)C1CC(S(=O)(=O)Cc2c(C(F)(F)F)nn(C)c2OC(F)F)=NO1 (stereo not drawn) | 85 to 86
